Earlier results as cited in patent publication US20030165581A1, “Compositions for treating diabetes mellitus, methods of use and manufacturing process of the same” (priority 2002, published 2003).
Read-outs that look alike come from different tables or passages of the source.

Columns and labels:
[1] = tested on: subjects with mild Type II diabetes; details: for average blood glucose level: soft gelatin formulation, 48 mg daily, control 168.3
[2] = tested on: Ehrlich ascites tumor cells; details: time course of glucose uptake
[3] = tested on: rats with experimentally induced diabetes; details: reduced from 300 mg/dL
mice = details: oral dose
[4] = tested on: subjects with mild Type II diabetes; details: for drop of average blood glucose level compared to placebo: dry powder base, two-piece hard gelatin capsule; for drop of average blood glucose level: oil based soft gelatin capsule, two weeks
Type II diabetic rats = details: supplementation with corosolic acid; control group showed elevation
[5] = tested on: human subjects with mild Type II diabetes
[6] = tested on: hereditary Type II diabetic mice
[7] = supplemented with corosolic acid

C[C@H]1[C@H](C)CC[C@]2(C(=O)O)CC[C@]3(C)C(=CC[C@@H]4[C@@]5(C)C[C@@H](O)[C@H](O)C(C)(C)[C@@H]5CC[C@]43C)[C@H]12 [corosolic acid]
blood glucose level during washout ([1]; 15 days of washout after soft gelatin treatment): 131.7 mg/dL
blood glucose level during washout ([1]; 30 days of washout after soft gelatin treatment): 153.2 mg/dL
blood glucose level during washout ([1]; 45 days of washout after soft gelatin treatment): 168.2 mg/dL
decline in blood glucose levels after a meal ([1]; compared to untreated (diabetic) control conditions): sharper decline
weight loss ([1]; dry-powder based formulation): no weight loss
average weight loss ([1]; oil-based formulation in a soft gelatin capsule): 3.2 pounds
adverse effects ([1]; oral dose, cross-over study): no signs of adverse effects
average blood glucose level ([1]; 15th day of treatment): 127.2 mg/deciliter
average blood glucose level ([1]; 30th day of treatment): 115.1 mg/deciliter
memory effect after termination of the treatment ([1]; washout period blood glucose levels): up to four
glucose transport-stimulating activity (glucose uptake by Ehrlich cells) [2]: significant glucose transport-stimulating activity
time of peak reduction after administration (normal rabbits; after large doses): two to four
blood sugar reduction (normal rabbits; large doses): more than 57 mg per 100 mL blood
time blood sugar remained low (normal rabbits; repetition of the first dose after two more hours): more than 5 hours
blood sugar level after corosolic acid [3]: 150 mg/dL
blood sugar levels (mice): reduces blood sugar levels
drop of average blood glucose level compared to placebo ([4]; 16 mg per day): 3.18%
drop of average blood glucose level compared to placebo ([4]; 32 mg per day): 6.5%
drop of average blood glucose level compared to placebo ([4]; 48 mg per day): 20.2%
drop of average blood glucose level ([4]; 16 mg per day): 4.9%
drop of average blood glucose level ([4]; 32 mg per day): 10.7%
drop of average blood glucose level ([4]; 48 mg per day): 31.9%
glucose levels (Type II diabetic rats): decrease in glucose levels
adverse effects ([5]; short-term (four weeks) treatment): no signs of adverse effects
blood glucose levels ([5]; tablet after each meal three times daily, four weeks, vs placebo): effective in reducing blood glucose levels
increase of plasma glucose levels ([6]; diet including corosolic acid for five weeks vs control diet): completely suppressed
level of serum insulin [6, 7]: lowered
total plasma cholesterol [6, 7]: lowered
urinary excreted glucose [6, 7]: lowered
